The structures appear in SMILES notation.

The text below walks through data of paper PMC6269071, “New Quinoxaline Derivatives as Potential MT1 and MT2 Receptor Ligands” (Molecules, 2012).

Experiment [1] concerns the target T1, human melatonin MT2 receptor (Homo sapiens, UniProt P49286).
T1 construct: expressed in transfected cells; host or cells: HEK or CHO cells, stably transfected; membrane preparations
T1 sequence (P49286 1-362): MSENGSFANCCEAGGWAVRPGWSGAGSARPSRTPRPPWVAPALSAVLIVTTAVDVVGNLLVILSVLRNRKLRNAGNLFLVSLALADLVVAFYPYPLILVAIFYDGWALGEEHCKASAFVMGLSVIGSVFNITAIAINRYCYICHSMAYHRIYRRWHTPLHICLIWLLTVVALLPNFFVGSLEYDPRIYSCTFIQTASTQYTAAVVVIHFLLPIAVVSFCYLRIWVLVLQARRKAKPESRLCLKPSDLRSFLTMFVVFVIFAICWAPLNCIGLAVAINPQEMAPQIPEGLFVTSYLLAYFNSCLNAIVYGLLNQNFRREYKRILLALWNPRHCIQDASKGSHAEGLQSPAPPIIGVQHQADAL
Description: 2-[125I]Iodomelatonin competitive binding, MT2. Conditions: for Ki: 2-[125I]Iodomelatonin radioligand, membranes of HEK or CHO cells, mean of at least three experiments, read-out: MT2 Ki (µM) ± SEM. Here is the method: (§1) The binding affinity of the newly synthesized quinoxalines for MT1 and MT2 receptors was tested through competitive binding experiments using 2-[^125I]Iodomelatonin as radioligand.
(§2) Grown at confluence at 37 °C ([…]/5% CO2), they were harvested in PBS containing EDTA 2 mM and centrifuged at 1,000 g for 5 min (4 °C). The resulting pellet was suspended in Tris 5 mM (pH 7.5), containing EDTA 2 mM and homogenized using a Kinematica polytron. The homogenate was then centrifuged (95,000 g, 30 min, 4 °C) and the resulting pellet suspended in 75 mM Tris (pH 7.5), 12.5 mM MgCl2 and 2 mM EDTA. Aliquots of membrane preparations were stored at −80 °C until use.
(§3) 2-[^125I]Iodomelatonin binding assay conditions are essentially as previously described. Briefly, binding is initiated by the addition of membrane preparations from stable transfected HEK or CHO cells diluted in binding buffer (50 mM Tris-HCl buffer, pH 7.4, containing 5 mM MgCl2) to 2-[^125I]Iodomelatonin (25 or 200 pM for MT1 and MT2 receptors, respectively, expressed in HEK cells or 20 pM for MT1 and MT2 receptors expressed in CHO cells) and the tested drug. […] After 120 min of incubation at 37 °C, the reaction was stopped by rapid filtration through GF/B filters presoaked in 0.5% (v/v) polyethylenimine. Filters were washed three times with 1 mL of ice-cold 50 mM Tris-HCl buffer, pH 7.4. Data from dose-response curves (seven concentrations in duplicate) were analyzed using the program PRISM (Graph Pad Software Inc., San Diego, CA, USA) to yield IC50 (inhibitory concentration 50). Results were expressed as Ki using the Cheng and Prusoff equation: Ki = IC50/[1 + (L/KD)], where [L] is the concentration of radioligand used in the assay and KD, the dissociation constant of the radioligand characterizing the membrane preparation.

The target in experiment [2] is T2, human melatonin MT1 receptor (Homo sapiens, UniProt P48039).
T2 construct: expressed in transfected cells; host or cells: HEK or CHO cells, stably transfected; membrane preparations
Description: 2-[125I]Iodomelatonin competitive binding, MT1. The settings on record: 2-[125I]Iodomelatonin radioligand; membranes of HEK or CHO cells; mean of at least three experiments; read-out: MT1 Ki (µM) ± SEM. Here is the method:
as §1, §2, §3

Experiment [3] deals with T3, MT2 receptor (CHO-MT2 membranes) (Homo sapiens, UniProt P49286).
T3 construct: expressed in transfected cells; host or cells: CHO cells, transfected; membranes
T3 sequence (P49286 1-362): T1 sequence (P49286 1-362)
The experiment is described as follows: [35S]GTPγS binding assay, MT2. Type of experiment: biochemical. The settings on record: for functional profile at MT2 / EC50: [35S]GTPγS binding; for EC50: CHO membranes, read-out: MT2 EC50 ± SEM. Here is the method: as §2
[^35S]GTPγS binding assay was performed according to published methodology. Briefly, membranes from transfected CHO cells expressing MT1 and MT2 receptor subtypes and compounds were diluted in binding buffer (20 mM HEPES, pH 7.4, 100 mM NaCl, 3 μM GDP, 3 mM MgCl2, and 20 μg/mL saponin). Incubation was started by the addition of 0.2 nM [^35S]GTPγS to membranes (20 μg/mL) and drugs, and further followed for 1h at room temperature.

T2 sequence (P48039 whole entry): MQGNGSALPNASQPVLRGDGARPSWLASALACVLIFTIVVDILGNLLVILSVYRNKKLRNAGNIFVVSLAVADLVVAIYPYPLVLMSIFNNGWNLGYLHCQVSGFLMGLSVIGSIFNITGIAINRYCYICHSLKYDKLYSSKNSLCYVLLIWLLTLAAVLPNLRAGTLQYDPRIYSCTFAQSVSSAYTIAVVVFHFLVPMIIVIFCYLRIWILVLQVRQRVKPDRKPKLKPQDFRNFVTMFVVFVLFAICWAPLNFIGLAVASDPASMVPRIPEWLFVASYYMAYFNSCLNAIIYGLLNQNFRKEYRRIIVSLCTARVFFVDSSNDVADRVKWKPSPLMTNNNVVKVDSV

As for `COc1nc2ccccc2nc1CNC(=O)NC(C)C` [Compound 3h, 1-Isopropyl-3-(3-methoxyquinoxalin-2-ylmethyl)urea], the inhibition constant (Ki) in experiment [1] and in experiment [2] was > 1000 µM each time.
In the case of `COc1nc2ccc(NC(C)=O)cc2nc1OC` [Compound 6a, N-(2,3-Dimethoxyquinoxalin-6-yl)acetamide], the Ki (in general, the equilibrium dissociation constant of an inhibitor or competing ligand from its target) in experiment [1] was 0.08 µM. Also, the MT2/MT1 selectivity ratio in experiment [1] (ratio of binding affinities MT1 vs MT2) is reported as 250. Further, in experiment [3], the “functional profile at MT2” value is listed as “antagonist” and the EC50 (usually the concentration giving half of the maximal effect) was > 10 µM. Moreover, the Ki in experiment [2] turned out to be 20 ± 1.82 µM.
With `COc1nc2ccc(NC(=O)c3ccccc3)cc2nc1OC` [Compound 6e, N-(2,3-Dimethoxyquinoxalin-6-yl)benzamide], the Ki in experiment [1] and in experiment [2] was > 1000 µM in each case.
`COc1nc2ccc(NC(=O)NC(C)C)cc2nc1OC` [Compound 6h, 1-(2,3-Dimethoxyquinoxalin-6-yl)-3-isopropylurea]: the Ki in experiment [1] and in experiment [2] was > 1000 µM each time.
Consider `CCCNC(=O)Nc1ccc2nc(OC)c(OC)nc2c1` [Compound 6g, 1-(2,3-Dimethoxyquinoxalin-6-yl)-3-propylurea], for which the Ki in experiment [1] was 0.489 ± 0.07 µM; in experiment [2] it was 1.63 ± 0.44 µM.
With `CCCC(=O)Nc1ccc2nc(OC)c(OC)nc2c1` [Compound 6c, N-(2,3-Dimethoxyquinoxalin-6-yl)butyramide], the Ki in experiment [1] is 1.35 ± 0.31 µM. In experiment [3], the “functional profile at MT2” value is listed as “full agonist” and the EC50 worked out at 1.3 ± 0.26 µM. Moreover, the Emax (in general, the greatest response seen or fitted, relative to the assay's reference) in experiment [3] (read-out: MT2 Emax ± SEM (%)) turned out to be 84 ± 9.5%. In addition, the Ki in experiment [2] came out at 11.5 ± 2.8 µM.
On to `COc1nc2ccccc2nc1CNC(=O)c1ccccc1` [Compound 3e, N-(3-Methoxy-quinoxalin-2-ylmethyl)-benzamide], for which the Ki in experiment [1] and in experiment [2] was > 1000 µM each time.
`COc1ccc2ncc(CNC(=O)c3ccccc3)nc2c1` [Compound 10e, N-[(7-Methoxyquinoxalin-2-yl)methyl]benzamide]: the Ki in experiment [1] and in experiment [2] was > 1000 µM in each case.
Turning to `COc1nc2ccccc2nc1CNC(=O)C(C)C` [Compound 3d, N-(3-Methoxyquinoxalin-2-ylmethyl)-isobutyramide], the Ki in experiment [1] came out at 0.47 ± 0.02 µM; in experiment [2], 1.23 ± 0.32 µM.
Regarding `CCC(=O)NCc1cnc2ccc(OC)cc2n1` [Compound 10b, N-[(7-Methoxyquinoxalin-2-yl)methyl]propionamide], the Ki in experiment [1] was 0.34 ± 0.15 µM; in experiment [2], > 1000 µM.
The like results for `CCCC(=O)NCc1nc2ccccc2nc1OC` [Compound 3c, N-(3-Methoxyquinoxalin-2-ylmethyl)-butyramide] were, in that order, 1.1 ± 0.03 µM and 0.75 ± 0.36 µM.
`CCC(=O)NCc1nc2ccccc2nc1OC` [Compound 3b, N-(3-Methoxyquinoxalin-2-ylmethyl)-propionamide]: the Ki in experiment [1] came to 0.66 ± 0.01 µM; in experiment [2], 2.6 ± 0.23 µM.
The like results for `CCCC(=O)NCc1cnc2ccc(OC)cc2n1` [Compound 10c, N-[(7-Methoxyquinoxalin-2-yl)methyl]butyramide] were, in that order, 0.1 ± 0.01 µM and 0.21 ± 0.11 µM.
In the case of `COc1nc2ccc(NC(=O)Nc3ccccc3)cc2nc1OC` [Compound 6i, 1-(2,3-Dimethoxyquinoxalin-6-yl)-3-phenylurea], the Ki in experiment [1] and in experiment [2] was > 1000 µM in each case.
Take `COc1ccc2ncc(CNC(=O)C(C)C)nc2c1` [Compound 10d, N-[(7-Methoxyquinoxalin-2-yl)methyl]isobutyramide]: the figures for the Ki in experiment [1] and in experiment [2] were 0.16 µM and 0.32 ± 0.04 µM, respectively.
For the molecule `CCNC(=O)NCc1nc2ccccc2nc1OC` [Compound 3f, Ethyl-3-(3-methoxyquinoxalin-2-ylmethyl)urea], the Ki in experiment [1] is 0.4 ± 0.13 µM; in experiment [2], > 1000 µM.
`CCC(=O)Nc1ccc2nc(OC)c(OC)nc2c1` [Compound 6b, N-(2,3-Dimethoxyquinoxalin-6-yl)propionamide]: the Ki worked out at 4.36 ± 1.22 µM in experiment [1] and 17.6 ± 7.81 µM in experiment [2].
Consider `CCCNC(=O)NCc1nc2ccccc2nc1OC` [Compound 3g, 1-(3-Methoxyquinoxalin-2-ylmethyl)-3-propylurea], for which the Ki in experiment [1] was 0.44 µM; in experiment [2], > 1000 µM.
In the case of `COc1ccc2ncc(CNC(C)=O)nc2c1` [Compound 10a, N-[(7-Methoxyquinoxalin-2-yl)methyl]acetamide], the Ki in experiment [1] and in experiment [2] was > 1000 µM in each case.
In the case of `COc1nc2ccccc2nc1CNC(=O)Nc1ccccc1` [Compound 3i, 1-(3-Methoxyquinoxalin-2-ylmethyl)-3-phenyl-urea], the Ki in experiment [1] and in experiment [2] was > 1000 µM in each case.
For the molecule `COc1nc2ccccc2nc1CNC(C)=O` [Compound 3a, N-(3-Methoxyquinoxalin-2-ylmethyl)-acetamide], the figures for the Ki in experiment [1] and in experiment [2] were 0.88 ± 0.3 µM and 2.98 ± 0.36 µM, respectively.
As for `CCNC(=O)Nc1ccc2nc(OC)c(OC)nc2c1` [Compound 6f, 1-(2,3-Dimethoxyquinoxalin-6-yl)-3-ethylurea], the Ki came to 28.8 µM in experiment [1] and 3.41 ± 1.89 µM in experiment [2].
The corresponding values for `COc1nc2ccc(NC(=O)C(C)C)cc2nc1OC` [Compound 6d, N-(2,3-Dimethoxyquinoxalin-6-yl)isobutyramide] are 10.5 ± 2.96 µM and 3.4 ± 1.37 µM.
